Experimental data taken from US4347319A, “Microbiological epoxidation process” (priority 1980, dated 1982).

Experiments:
[1] = tested on: methane-grown methylotrophic microorganisms; experiment: Epoxidation by methane-grown cells of the strains of the invention; format: cell-based
Experimental: The pH of the nutrient medium was adjusted to 7.0 by the addition of acid or base and 50 ml samples of the nutrient medium were charged into a plurality of 300 ml shaker flasks. The shaker flasks were inoculated with an inoculating loop of cells from an agar plate containing homogeneous colonies of the microorganisms on the plate (the purity of the isolates was confirmed by microscopic examination. The isolates had been maintained on agar plates under an atmosphere of methane and air having a 1:1 v/v gas ratio which had been transferred evey two weeks. The gaseous phase of the inoculated flasks was then replaced with a gas mixture comprised of methane and air having a ratio of 1:1 on a v/v basis. The inoculated flasks were sealed air tight and were incubated on a rotary shaker of orbital radius 2.5 cm at 250 rpm and at 30° C. for two days until turbidity in the medium had developed.
The cells were harvested by centrifugation at 10,000×g. at 4° C. for 30 minutes. The cell pellet was washed twice with a 0.15 M phosphate buffer at a pH of 7.0 (containing 0.002 M MgCl2). […]
A 0.5 ml sample of each washed cell suspension (2 mg cells) was put into 10 ml vials at 4° C. which were sealed with a rubber cap. […] Samples of product (3 μl) were withdrawn periodically with a microsyringe and the products were analyzed by gas chromatography (ionization flame detector column). […]

[2] = molecular target: T1, cell fractions of Methylosinus sp. (CRL-15, NRRL B-11,202) (Methylosinus trichosporium, UniProt Q50541+Q9KX50+Q9KX51); experiment: Oxidation by cell fractions P(40), P(80), S(80); format: biochemical; settings: P(40) particulate fraction; alkene to epoxide, alkane to alcohol; 30° C.
T1 sequence (Q9KX50 40-431): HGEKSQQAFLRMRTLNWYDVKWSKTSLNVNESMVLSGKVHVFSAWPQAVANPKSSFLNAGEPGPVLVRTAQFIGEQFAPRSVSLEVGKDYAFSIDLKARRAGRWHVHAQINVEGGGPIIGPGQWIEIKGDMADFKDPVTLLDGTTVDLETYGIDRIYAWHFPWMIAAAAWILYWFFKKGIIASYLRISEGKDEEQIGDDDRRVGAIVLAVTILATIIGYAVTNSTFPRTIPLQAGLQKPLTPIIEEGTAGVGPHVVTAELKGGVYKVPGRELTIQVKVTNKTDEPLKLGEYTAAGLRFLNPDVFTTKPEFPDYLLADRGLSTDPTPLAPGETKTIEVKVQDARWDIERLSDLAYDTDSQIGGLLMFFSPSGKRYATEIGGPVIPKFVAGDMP
T1 sequence (Q50541 1-252): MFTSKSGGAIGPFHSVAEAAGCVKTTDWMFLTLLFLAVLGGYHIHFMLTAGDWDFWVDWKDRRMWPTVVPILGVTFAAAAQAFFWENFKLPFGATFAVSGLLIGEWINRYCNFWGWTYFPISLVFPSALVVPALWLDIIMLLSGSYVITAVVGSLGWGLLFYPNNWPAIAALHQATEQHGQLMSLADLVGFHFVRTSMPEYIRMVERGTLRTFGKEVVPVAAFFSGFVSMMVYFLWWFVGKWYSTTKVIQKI
T1 sequence (Q9KX51 1-256): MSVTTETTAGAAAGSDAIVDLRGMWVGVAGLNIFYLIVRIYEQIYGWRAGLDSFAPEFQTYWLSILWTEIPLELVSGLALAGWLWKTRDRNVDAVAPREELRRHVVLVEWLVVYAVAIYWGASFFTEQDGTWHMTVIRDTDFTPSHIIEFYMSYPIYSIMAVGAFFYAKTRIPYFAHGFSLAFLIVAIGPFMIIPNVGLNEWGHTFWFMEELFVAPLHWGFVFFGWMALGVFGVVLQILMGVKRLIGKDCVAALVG
Experimental: Cells were washed twice with 25 mM potassium phosphate buffer, pH 7.0 containing 5 mM MgCl2. Cells were suspended in the same buffer. The cell suspensions at 4° C. were disintegrated by a single passage through a French Pressure cell (15,000 lb./in.^2) and centrifuged at 5000×g. for 15 min. to remove unbroken bacteria. The supernatant solution (crude extract) was then centrifuged at 40,000×g. for 30 min., yielding particulate P(40) and soluble S(40) fractions. The S(40) fraction was subsequently centrifuged at 80,000×g. for 60 min., yielding particulate P(80) and soluble S(80) fractions. The particulate fractions [P(40) and P(80)] were suspended in 25 mM potassium phosphate buffer, pH 7.0, containing 5 mM MgCl2 and homogenized at 4° C.
The oxidation of methane and propylene by particulate [(P)40 and (P)80] fractions and soluble [S(80)] fraction was measured at 30° C. by estimating the production of methanol and propylene oxide, respectively. The reaction mixtures contained in […]: 150 mM potassium phosphate buffer, pH 7.0 containing 5 mM MgCl2 b, 0.6 ml; 10μ moles NADH, and cellular fraction.
Reaction mixtures were contained in 10 ml vials at 4° C. Vials were sealed with rubber caps. The gaseous phase in the vials was removed using vacuum and then was replaced with a gas mixture of methane or propylene and oxygen at a 1:1, v/v ratio. Oxidation of other gaseous n-alkanes and n-alkanes was examined as described above. For liquid substrates, 10 μl of substrate was used directly.
The products of epoxidation of n-alkenes and hydroxylation of n-alkanes were assayed by flame ionization gas chromatography using a stainless steel column (12'×1/8") packed with 10% Carbowax 20 M on 80/100 Chromosorb W and Porapak Q column. The column temperature was maintained isothermally at 120° C. The carrier gas flow rate was 30 ml/min. of helium. The various products were identified by retention time comparisons and co-chromatography with authentic standards.
Specific activities were expressed as μ moles of products formed per hour per mg. protein. Concentrations of protein in various fractions were determined by the method of Lowry et al., J. Biol. Chem., 193: 265-275 (1951).

Row | SMILES | epoxide product formation [1] | Rate of Product Formation [2]
1 | C=CCCC [1-Pentene] | did not produce any detectable epoxide product | 0 μ moles/hr/mg of protein
2 | C=CCCCC [hexene-1] | did not produce any detectable epoxide product | 
